According to ChEMBL document CHEMBL5223101, “Evolution of 3-(4-hydroxyphenyl)indoline-2-one as a scaffold for potent and selective anticancer activity” (RSC Med Chem, 2022):

Test: Anticancer activity against human ECC-1 cells assessed as cell death at 1 uM by tryphan blue staining based cell counter analysis relative to control

Q: For `Cc1cccc2c1NC(=O)C2(c1ccc(O)cc1)c1ccc(O)cc1`, which cell death at 1 µM is on record?
A: < 20%
